Measured values taken from paper PMC6418270, “The pharmacological and functional characterization of the serotonergic system in Anopheles gambiae and Aedes aegypti: influences on flight and blood-feeding behavior” (Scientific Reports, 2019).
Where a name gives a salt, the structure may show the parent alone. Values belong to the compound of their own block, whether it stands above or below them.

How the values were obtained:
Ae. aegypti [1] = test: Blood-feeding assay (artificial membrane feeder) after microinjection; assay type: in vivo, Aedes aegypti; details: 1 mM microinjected
Protocol: (§1) Stock solutions of the compounds were diluted to the appropriate concentrations in 1X phosphate buffer solution (PBS). To account for potential solvent effects, an ultrapure H2O control group was included in every independent experiment. Female mosquitoes were either cold- or CO2-anesthetized. A Nanoject II Auto-Nanoliter Injector (Drummond Scientific Company, Broomall, PA) was then utilized to microinject 69 nL of compound into the spiracle.
Seven to ten-day old female mosquitoes were treated with compound or appropriate control through microinjection post cold-anesthetization or ingestion. Two mL of human O^+ blood (BioChemed Services, Winchester, VA) was utilized to cover the concave surface of an inverted baby food jar. Hog intestine sealed the opening to simulate the puncturing of a host’s skin. The feeding membrane was placed on the top of a mosquito cage, and hot water was poured into the jar to warm the blood. After a 45-minute feed, the mosquitoes were immediately preserved at −20 °C. The blood meal size was determined for each mosquito via hemoglobinometry as previously described.
(§2) Luminescence and calcium assay data were normalized and fitted with a non-linear least squares regression to generate dose-response curves, EC50 and IC50 values. Unpaired t-tests or Dunnett’s multiple comparisons test were performed accordingly to compare EC50 or IC50 values. Locomotion was measured based on the distance required for flight recovery. Data were compared with the Kruskal-Wallis and Dunnett’s multiple comparison tests after the Kolmogorov-Smirnov normality test was conducted. In the blood-feeding experiments, the percentage of blood-fed mosquitoes was calculated for each treatment group. For each biological replicate, the treatment groups were normalized with respect to the untreated group. Dunnett’s multiple comparison tests were utilized to determine statistical difference between normalized data. Size of bloodmeals were compared with an unpaired t-test or Mann-Whitney test after normality was evaluated with the Kolmogorov-Smirnov test. All analyses were performed utilizing GraphPad Prism version 7.00 for Mac OS X, GraphPad Software, La Jolla California USA, www.graphpad.com.

D. melanogaster = system: D. melanogaster; design: method as in PMID 26989517, PMID 24586928; details: larval and adult; cited from earlier work
Ae. aegypti [2] = test: Flight performance in flight cylinder after microinjection; assay type: in vivo, Aedes aegypti; details: for Distance average in flight cylinder: Fig. 5d; for Average distance dropped before landing on flight cylinder: Fig. 5b
Protocol: as §1
A flight cylinder was assembled as described previously. The polyacrylamide sheet was coated with Tangle-Trap Sticky Coating (The Scotts Company LLC, Marysville, OH) and allowed to sit overnight before insertion into the flight cylinder. Adult mosquitoes were anesthetized on a CO2 pad and microinjected with the compound or ultrapure H2O control. Post-injection, they were permitted to recover in a fly vial for 30 minutes before being ejected into the flight cylinder. After each trial, the distance between the top of the cylinder and the trapped mosquito was recorded. Mosquitoes captured in the fly vial at the bottom of the cylinder were considered to be incapable of flying and a distance of 91.5 cm was recorded.
as §2

AGAP002232 = AGAP002232 (Anopheles gambiae, UniProt A0A1S4GEY1); test: Fluo-4 calcium assay in CRE-luc2P HEK-293 cells expressing AGAP002232; assay type: cell-based
Chain of AGAP002232 (A0A1S4GEY1 entry or part of it): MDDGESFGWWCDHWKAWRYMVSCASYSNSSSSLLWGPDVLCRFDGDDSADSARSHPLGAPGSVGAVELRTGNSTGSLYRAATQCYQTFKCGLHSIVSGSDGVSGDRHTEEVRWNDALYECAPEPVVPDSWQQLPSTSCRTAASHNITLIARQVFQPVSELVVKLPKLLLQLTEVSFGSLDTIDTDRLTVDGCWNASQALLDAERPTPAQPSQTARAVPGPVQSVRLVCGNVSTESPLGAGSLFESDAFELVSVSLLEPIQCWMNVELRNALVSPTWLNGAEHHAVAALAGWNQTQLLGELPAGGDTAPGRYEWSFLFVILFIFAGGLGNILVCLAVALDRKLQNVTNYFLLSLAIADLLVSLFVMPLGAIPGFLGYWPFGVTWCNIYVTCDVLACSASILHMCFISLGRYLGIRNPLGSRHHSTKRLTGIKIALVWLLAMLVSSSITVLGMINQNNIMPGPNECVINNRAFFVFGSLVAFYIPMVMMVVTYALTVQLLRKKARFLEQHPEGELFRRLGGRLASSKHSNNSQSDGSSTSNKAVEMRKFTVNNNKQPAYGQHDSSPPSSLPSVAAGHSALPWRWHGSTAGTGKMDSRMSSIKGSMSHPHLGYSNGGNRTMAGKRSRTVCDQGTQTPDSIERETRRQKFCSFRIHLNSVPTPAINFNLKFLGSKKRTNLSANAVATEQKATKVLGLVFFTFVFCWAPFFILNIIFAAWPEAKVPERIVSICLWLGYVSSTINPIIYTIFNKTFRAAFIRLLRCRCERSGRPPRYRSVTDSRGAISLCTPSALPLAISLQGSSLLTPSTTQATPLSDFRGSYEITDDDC
Protocol: The GloResponse™ CRE-luc2P human embryonic kidney (HEK-293) reporter cells were incubated at 37 °C with an atmosphere of 5% CO2, and maintained in Dulbecco’s Modified Eagle Medium (DMEM) supplemented with 10% fetal bovine serum (FBS) and […] hygromycin B. Transfection of the HEK-293 cells with 1 μg of plasmid DNA was performed with Amaxa Nucleofector™ technology (Lonza, Basel, Switzerland) as per manufacturer’s instructions. A week post-transfection, selective pressure was applied with […] of G418 antibiotic to generate stable lines.
(§3) 1 × 10^6 cells per well were seeded into a 96-well black all-clear bottom plate and incubated overnight in 10% FBS/90% DMEM at 37 °C with an atmosphere of 5% CO2. The following day, 2X Fluo-4 Direct calcium dye (Molecular Devices LLC, San Jose, CA) was added to each well and incubated in the same conditions for 45 minutes before the assay was completed. At this time, serial dilutions of the test compounds were prepared in a 96-well clear flat bottom plate. Fluorescence levels were determined with a FlexStation3 microplate reader, with excitation and emission wavelengths set to 485 and 525 nm, respectively (Molecular Devices LLC). Basal fluorescence levels were measured for 17 seconds, at which time, 25 μl of the agonist compound was added. Fluorescence measurements continued to be recorded for a total of 120 seconds at 2-second intervals. When testing antagonists, cells were treated with the compound prior to determination of fluorescence levels.
as §2

[3] = system: octopamine receptor (AGAP000045); test: Inhibition in HEK-293 cells expressing an octopamine receptor; assay type: cell-based, Anopheles gambiae
D. melanogaster larvae = system: D. melanogaster larvae; design: method as in PMID 23817146; details: cited from earlier work
AGAP002229 = AGAP002229 (Anopheles gambiae, UniProt A7UR33); test: Fluo-4 calcium assay in CRE-luc2P HEK-293 cells expressing AGAP002229; assay type: cell-based; details: antagonist test; receptor not given, taken as both 5-HT2 cell lines
Chain of AGAP002229 (A7UR33 entry or part of it): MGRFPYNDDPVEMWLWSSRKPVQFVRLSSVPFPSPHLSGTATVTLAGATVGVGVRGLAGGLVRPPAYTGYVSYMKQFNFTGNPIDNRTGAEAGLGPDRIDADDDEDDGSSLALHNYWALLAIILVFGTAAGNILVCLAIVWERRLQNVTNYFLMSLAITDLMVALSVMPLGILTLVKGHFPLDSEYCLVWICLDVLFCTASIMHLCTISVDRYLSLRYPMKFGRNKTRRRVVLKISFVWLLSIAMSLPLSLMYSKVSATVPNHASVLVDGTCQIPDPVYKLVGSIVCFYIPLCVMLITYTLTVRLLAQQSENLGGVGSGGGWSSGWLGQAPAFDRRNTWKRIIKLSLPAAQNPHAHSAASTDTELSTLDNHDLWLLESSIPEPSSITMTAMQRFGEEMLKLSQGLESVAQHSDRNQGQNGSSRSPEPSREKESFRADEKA
Protocol: A week post-transfection, selective pressure was applied with […] of G418 antibiotic to generate stable lines.
as §3, with “Fluorescence levels were determined with a FlexStation3 microplate reader, with excitation and emission wavelengths set to 485 and 525 nm, respectively (Molecular Devices LLC). Basal fluorescence levels were measured for 17 seconds, at which time, 25 μl of the agonist compound was added.” left out
as §2

[4] = system: D1-like dopamine receptors; details: cited from earlier work

Compound: CNCCC(Oc1ccc(C(F)(F)F)cc1)c1ccccc1 (stereo not drawn) [fluoxetine, fluoxetine hydrochloride]
Successfully blood-fed, normalized to the untreated group (Ae. aegypti [1]): approximately 80% | Effect on locomotion (D. melanogaster): repress locomotion | Distance average in flight cylinder (Ae. aegypti [2]; 2.5 mM): 41.61 cm | Distance average in flight cylinder (Ae. aegypti [2]; 4 mM): 81.63 cm

IC50 (AGAP002232; read-out: IC50 (calcium response to 5-HT), AGAP002232 HEK-293 cells): 0.56 nM | Lowest concentration exhibiting inhibitory effects (AGAP002232; receptor not given): 10^−16 M
Compound: CS(=O)(=O)O.CSc1ccc2c(c1)C(N1CCN(C)CC1)Cc1ccccc1S2 (stereo not drawn) [methiothepin, methiothepin mesylate salt]
Blood meal size (Ae. aegypti [1]): 2.25 µL | Successfully blood-fed, normalized to the untreated group (Ae. aegypti [1]): 50.7% | Ability to inhibit activity in a dose-response manner (AGAP002232; antagonist test, receptor not given, taken as both 5-HT2 cell lines): exhibited the ability to inhibit activity in a dose-response manner | Successful flights (Ae. aegypti [2]; 1 mM microinjected (69 nL)): 92% | Average distance dropped before landing on flight cylinder (Ae. aegypti [2]; 1 mM): 22.77 cm | Successful flights (Ae. aegypti [2]; 1.5 mM microinjected (69 nL)): 84% | Average distance dropped before landing on flight cylinder (Ae. aegypti [2]; 1.5 mM): 33.04 cm | Average distance in flight cylinder (Ae. aegypti [2]; 1.5 mM, Fig. 5c): 41.38 cm | Successful flights (Ae. aegypti [2]; 2.5 mM microinjected (69 nL)): 61% | Average distance dropped before landing on flight cylinder (Ae. aegypti [2]; 2.5 mM): 49.27 cm | Inhibitory effect on octopamine receptor ([3]; 10^−4 M): marked inhibition | Inhibitory effect on octopamine receptor ([3]; all other concentrations of the range 10^−10 to 10^−4 M): did not elicit a similar result | Effect on feeding (D. melanogaster larvae): anorectic agent | Ability to inhibit activity in a dose-response manner (AGAP002229): exhibited the ability to inhibit activity in a dose-response manner | Inhibition of D1-like dopamine receptors [4]: ability to inhibit D1-like dopamine receptors
